Patent publication US20190381017A1, “Compositions Comprising Serdexmethylphenidate Conjugates And Methods Of Use Thereof” (KemPharm, Inc., priority 2018, published 2019)
Counter-ions that a name gives are not always drawn.

What was measured:
[1] = test system: recreational stimulant users; test: Treatment-emergent adverse events, intravenous study (Example 2); conditions: SDX Cl 30 mg (N=31), d-MPH HCl 15 mg (N=30)
Experimental: A study was conducted in humans to assess the intravenous abuse potential of serdexmethylphenidate relative to unconjugated d-methylphenidate and placebo in recreational stimulant abusers. This was a Phase 1, randomized, double-blind study in which serdexmethylphenidate and d-methylphenidate were administered intravenously in recreational stimulant users with a history of non-oral abuse. In Part A of the study, subjects (Cohort 1) participated in a dose-escalation phase to determine the optimal dose of intravenous d-methylphenidate based on tolerability and abuse-related pharmacodynamic assessments. […] The doses of serdexmethylphenidate and d-methylphenidate are equivalent with respect to molar amount of d-methylphenidate. FDA-recommended abuse potential measures and blood samples were collected at different times after dosing. Safety assessments were performed throughout the study.

[2] = test system: healthy, nondependent, recreational stimulant users with intranasal insufflation experience; test: Treatment-emergent adverse events, intranasal study (Example 5, Table 54)
Experimental: The study consisted of a Screening Period, an in-clinic Drug Discrimination Phase, a Treatment Phase, and a Follow-Up Visit.
All subjects were required to fast for at least 8 hours prior to each dose of study drug until approximately 4 hours after each dose. Abuse potential measures and pharmacokinetic samples were collected at different times after the administration of study drug. Subjects who successfully completed the Drug Discrimination Phase and who qualified for the Treatment Phase remained as inpatients to enter the Treatment Phase.

[3] = d-MPH HCl 40 mg (N = 46), SDX Cl 80 mg (N = 46)

## COC(=O)[C@H](c1ccccc1)[C@H]1CCCCN1 [d-methylphenidate hydrochloride, d-threo-methylphenidate hydrochloride]
[1]
  TEAE Change in sustained attention, % of subjects: (6.7) %
  TEAE Change in sustained attention, n subjects: 2
  TEAE Dry mouth, % of subjects: (20.0) %
  TEAE Dry mouth, n subjects: 6
  TEAE Energy increased, % of subjects: (3.3) %
  TEAE Energy increased, n subjects: 1
  TEAE Euphoric mood, % of subjects: (56.7) %
  TEAE Euphoric mood, n subjects: 17
  TEAE Feeling abnormal, % of subjects: (6.7) %
  TEAE Feeling abnormal, n subjects: 2
  TEAE Feeling hot, % of subjects: (20.0) %
  TEAE Feeling hot, n subjects: 6
  TEAE Feeling jittery, % of subjects: (6.7) %
  TEAE Feeling jittery, n subjects: 2
  TEAE Feeling of relaxation, % of subjects: (3.3) %
  TEAE Feeling of relaxation, n subjects: 1
  TEAE Headache, % of subjects: (3.3) %
  TEAE Headache, n subjects: 1
  TEAE Heart rate increased, % of subjects: (16.7) %
  TEAE Heart rate increased, n subjects: 5
  TEAE Hyperhidrosis (sweaty hands), % of subjects: (13.3) %
  TEAE Hyperhidrosis (sweaty hands), n subjects: 4
  TEAE Hypervigilance, % of subjects: (33.3) %
  TEAE Hypervigilance, n subjects: 10
  TEAE Nausea, % of subjects: (10.0) %
  TEAE Nausea, n subjects: 3
  TEAE Palpitations, % of subjects: (6.7) %
  TEAE Palpitations, n subjects: 2
  TEAE Paraesthesia (tingling), % of subjects: (6.7) %
  TEAE Paraesthesia (tingling), n subjects: 2
  TEAE Sinus tachycardia, % of subjects: (13.3) %
  TEAE Sinus tachycardia, n subjects: 4
  TEAE Somnolence, % of subjects: (13.3) %
  TEAE Somnolence, n subjects: 4
  TEAE Tachycardia, % of subjects: (13.3) %
  TEAE Tachycardia, n subjects: 4
[2]; [3]
  TEAE: Abdominal distension: 0 n (%) [E]
  TEAE: Agitation: 0 n (%) [E]
  TEAE: Arthralgia: 0 n (%) [E]
  TEAE: Catheter site haematoma: 0 n (%) [E]
  TEAE: Catheter site swelling: 0 n (%) [E]
  TEAE: Chest pain: 0 n (%) [E]
  TEAE: Claustrophobia: 0 n (%) [E]
  TEAE: Cough: 0 n (%) [E]
  TEAE: Dizziness: 0 n (%) [E]
  TEAE: Dysgeusia: 0 n (%) [E]
  TEAE: Dyspepsia: 0 n (%) [E]
  TEAE: Ecchymosis (skin discoloration): 0 n (%) [E]
  TEAE: Epistaxis (nosebleed): 0 n (%) [E]
  TEAE: Eye pain: 0 n (%) [E]
  TEAE: Feeling of relaxation: 0 n (%) [E]
  TEAE: Head discomfort: 0 n (%) [E]
  TEAE: Infections and infestations: 0 n (%) [E]
  TEAE: Irritability: 0 n (%) [E]
  TEAE: Lacrimation increased: 0 n (%) [E]
  TEAE: Nasal dryness: 0 n (%) [E]
  TEAE: Pharyngitis: 0 n (%) [E]
  TEAE: Phlebitis superficial: 0 n (%) [E]
  TEAE: Pyrexia: 0 n (%) [E]
  TEAE: Rhinorrhoea (runny nose): 0 n (%) [E]
  TEAE: Sneezing: 0 n (%) [E]
  TEAE: Upper-airway cough syndrome: 0 n (%) [E]
  TEAE: Vomiting: 0 n (%) [E]
[2]; d-MPH HCl 40 mg vs SDX Cl 80 mg
  typical stimulant-related adverse events (euphoric mood, hypervigilance, cardiac palpitations, tachycardia), frequency vs intranasal SDX Cl: occurred more often

## COC(=O)[C@H](c1ccccc1)[C@H]1CCCCN1C(=O)OC[n+]1cccc(C(=O)N[C@@H](CO)C(=O)O)c1.[Cl-] [serdexmethylphenidate chloride]
[1]
  TEAE Change in sustained attention, % of subjects: (0.0) %
  TEAE Change in sustained attention, n subjects: 0
  TEAE Dry mouth, % of subjects: (0.0) %
  TEAE Dry mouth, n subjects: 0
  TEAE Energy increased, % of subjects: (6.5) %
  TEAE Energy increased, n subjects: 2
  TEAE Euphoric mood, % of subjects: (12.9) %
  TEAE Euphoric mood, n subjects: 4
  TEAE Feeling abnormal, % of subjects: (3.2) %
  TEAE Feeling abnormal, n subjects: 1
  TEAE Feeling hot, % of subjects: (6.5) %
  TEAE Feeling hot, n subjects: 2
  TEAE Feeling jittery, % of subjects: (0.0) %
  TEAE Feeling jittery, n subjects: 0
  TEAE Feeling of relaxation, % of subjects: (0.0) %
  TEAE Feeling of relaxation, n subjects: 0
  TEAE Headache, % of subjects: (3.2) %
  TEAE Headache, n subjects: 1
  TEAE Heart rate increased, % of subjects: (0.0) %
  TEAE Heart rate increased, n subjects: 0
  TEAE Hyperhidrosis (sweaty hands), % of subjects: (3.2) %
  TEAE Hyperhidrosis (sweaty hands), n subjects: 1
  TEAE Hypervigilance, % of subjects: (12.9) %
  TEAE Hypervigilance, n subjects: 4
  TEAE Nausea, % of subjects: (0.0) %
  TEAE Nausea, n subjects: 0
  TEAE Palpitations, % of subjects: (0.0) %
  TEAE Palpitations, n subjects: 0
  TEAE Paraesthesia (tingling), % of subjects: (0.0) %
  TEAE Paraesthesia (tingling), n subjects: 0
  TEAE Sinus tachycardia, % of subjects: (0.0) %
  TEAE Sinus tachycardia, n subjects: 0
  TEAE Somnolence, % of subjects: (3.2) %
  TEAE Somnolence, n subjects: 1
  TEAE Tachycardia, % of subjects: (0.0) %
  TEAE Tachycardia, n subjects: 0
[2]; SDX Cl 80 mg vs d-MPH HCl 40 mg
  nasal discomfort, nasal congestion, rhinorrhoea, epistaxis, increased lacrimation, frequency vs intranasal d-MPH HCl: occurred more often
[2]; [3]
  TEAE: Back pain: 0 n (%) [E]
  TEAE: Blood pressure diastolic increased: 0 n (%) [E]
  TEAE: Bruxism: 0 n (%) [E]
  TEAE: Change in sustained attention: 0 n (%) [E]
  TEAE: Chest discomfort: 0 n (%) [E]
  TEAE: Decreased appetite: 0 n (%) [E]
  TEAE: Defaecation urgency: 0 n (%) [E]
  TEAE: Dry mouth: 0 n (%) [E]
  TEAE: Dry throat: 0 n (%) [E]
  TEAE: Dysmenorrhoea (menstrual cramps): 0 n (%) [E]
  TEAE: Dyspepsia: 0 n (%) [E]
  TEAE: Energy increased: 0 n (%) [E]
  TEAE: Eye irritation: 0 n (%) [E]
  TEAE: Feeling hot: 0 n (%) [E]
  TEAE: Flushing: 0 n (%) [E]
  TEAE: Haematoma: 0 n (%) [E]
  TEAE: Hypopnoea (shallow breathing): 0 n (%) [E]
  TEAE: Infections and infestations: 0 n (%) [E]
  TEAE: Investigations: 0 n (%) [E]
  TEAE: Metabolism and nutrition disorders: 0 n (%) [E]
  TEAE: Muscle tightness: 0 n (%) [E]
  TEAE: Muscle twitching: 0 n (%) [E]
  TEAE: Neck pain: 0 n (%) [E]
  TEAE: Obsessive-compulsive disorder: 0 n (%) [E]
  TEAE: Peripheral swelling: 0 n (%) [E]
  TEAE: Pharyngeal hypoaesthesia (numbness of throat): 0 n (%) [E]
  TEAE: Pharyngitis: 0 n (%) [E]
  TEAE: Phlebitis superficial: 0 n (%) [E]
  TEAE: Phonophobia (fear of loud noises): 0 n (%) [E]
  TEAE: Photophobia: 0 n (%) [E]
  TEAE: Pyrexia: 0 n (%) [E]
  TEAE: Reproductive system and breast disorders: 0 n (%) [E]
  TEAE: Restlessness: 0 n (%) [E]
  TEAE: Sinus tachycardia: 0 n (%) [E]
  TEAE: Tachycardia: 0 n (%) [E]
  TEAE: Testis discomfort: 0 n (%) [E]
  TEAE: Vascular disorders: 0 n (%) [E]
  TEAE: Ventricular extrasystoles: 0 n (%) [E]
  TEAE: Vessel puncture site bruise: 0 n (%) [E]
  TEAE: Vessel puncture site pain: 0 n (%) [E]
  TEAE: Visual impairment: 0 n (%) [E]
  TEAE: Vomiting: 0 n (%) [E]
